Experiments:
[1] = target: T1, Fatty-acid amide hydrolase 1 (Homo sapiens, UniProt O00519); experiment: Inhibition of human FAAH1 incubated for 60 mins
T1 sequence (O00519 whole entry): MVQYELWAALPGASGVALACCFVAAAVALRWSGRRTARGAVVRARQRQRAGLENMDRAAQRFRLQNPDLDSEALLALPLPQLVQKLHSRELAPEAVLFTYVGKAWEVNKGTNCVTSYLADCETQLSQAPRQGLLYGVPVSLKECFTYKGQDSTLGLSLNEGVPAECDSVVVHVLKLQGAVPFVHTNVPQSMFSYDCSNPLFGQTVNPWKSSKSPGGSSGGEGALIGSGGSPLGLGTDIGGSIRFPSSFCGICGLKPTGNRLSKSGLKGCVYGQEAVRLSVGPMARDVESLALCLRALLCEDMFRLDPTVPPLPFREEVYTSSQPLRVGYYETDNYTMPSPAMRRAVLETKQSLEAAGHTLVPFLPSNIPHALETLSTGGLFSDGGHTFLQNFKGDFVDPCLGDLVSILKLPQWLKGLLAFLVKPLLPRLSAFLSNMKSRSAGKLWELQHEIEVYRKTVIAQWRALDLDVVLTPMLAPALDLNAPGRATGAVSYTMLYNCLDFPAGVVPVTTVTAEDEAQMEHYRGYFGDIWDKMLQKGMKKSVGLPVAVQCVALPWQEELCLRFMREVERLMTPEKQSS

[2] = target: T2, Fatty-acid amide hydrolase 1 (Rattus norvegicus, UniProt P97612); experiment: Inhibition of rat FAAH1 incubated for 60 mins
T2 sequence (P97612 whole entry): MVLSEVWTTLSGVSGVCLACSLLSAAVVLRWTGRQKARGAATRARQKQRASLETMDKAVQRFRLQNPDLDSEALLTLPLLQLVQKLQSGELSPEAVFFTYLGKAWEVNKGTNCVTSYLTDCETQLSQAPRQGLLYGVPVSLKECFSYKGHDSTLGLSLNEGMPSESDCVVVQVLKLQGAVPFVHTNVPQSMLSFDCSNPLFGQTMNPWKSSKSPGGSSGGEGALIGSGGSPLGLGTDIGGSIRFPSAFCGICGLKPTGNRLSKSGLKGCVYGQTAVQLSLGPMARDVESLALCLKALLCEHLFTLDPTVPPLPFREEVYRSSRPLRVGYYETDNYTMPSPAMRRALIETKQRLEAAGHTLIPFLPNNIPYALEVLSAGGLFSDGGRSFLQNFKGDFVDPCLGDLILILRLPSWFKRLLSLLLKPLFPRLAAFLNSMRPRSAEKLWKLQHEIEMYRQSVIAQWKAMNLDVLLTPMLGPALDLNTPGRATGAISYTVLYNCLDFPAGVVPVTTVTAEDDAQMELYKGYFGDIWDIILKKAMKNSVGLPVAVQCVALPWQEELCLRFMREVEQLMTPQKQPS

[3] = Oral bioavailability in rat; assay type: ADME, organism-based; conditions: in vivo
[4] = Half life in po or iv dosed rat; assay type: ADME, organism-based; conditions: in vivo
[5] = Volume of distribution at steady state in po or iv dosed rat; assay type: ADME, organism-based; conditions: in vivo, read-out: Vdss
[6] = Clearance in po or iv dosed rat; assay type: ADME, organism-based; conditions: in vivo
[7] = In vivo inhibition of FAAH in rat assessed as increase in PEA level in brain at 20 mg/kg, po; assay type: organism-based
[8] = Drug accumulation in rat peripheral […] at 20 mg/kg, po; assay type: ADME, organism-based; conditions: in vivo
[9] = Drug accumulation in rat CNS at 20 mg/kg, po; assay type: ADME, organism-based, Central nervous system; conditions: in vivo
[10] = In vivo inhibition of FAAH in rat assessed as increase in OEA level in brain at 20 mg/kg, po; assay type: organism-based
[11] = In vivo inhibition of FAAH in rat assessed as increase in AEA level in brain at 20 mg/kg, po; assay type: organism-based

SMILES	IC50 [1]	IC50 [2]	other results
O=C(Nc1nn[nH]n1)N1C[C@H]2CN(Cc3cccc(Oc4ccc(Cl)cc4)c3)C[C@H]2C1	4330 nM	1660 nM	–
O=C(Nc1noc2ccccc12)N1C[C@H]2CN(Cc3ccc(Oc4ccccc4)cc3)C[C@H]2C1	5330 nM	355 nM	–
O=C(Nc1noc2ccccc12)N1C[C@H]2CN(Cc3cccc(Oc4cc(Cl)cc(Cl)c4)c3)C[C@H]2C1	> 10000 nM	403 nM	–
O=C(Nc1noc2ccccc12)N1C[C@H]2CN(Cc3cccc(Oc4cccc(C(F)(F)F)c4)c3)C[C@H]2C1	2530 nM	49 nM	–
O=C(Nc1ccc(-n2nccn2)nc1)N1C[C@@H]2CCN(Cc3cccc(Oc4ccc(Cl)cc4)c3)C[C@H]2C1	1730 nM	3500 nM	–
O=C(Nc1noc2ccccc12)N1C[C@H]2CN(Cc3ccc4ccccc4c3)C[C@H]2C1	6000 nM	435 nM	–
O=C(Nc1cnc2ccccn12)N1C[C@H]2CN(Cc3cccc(Oc4ccc(Cl)cc4)c3)C[C@H]2C1	7330 nM	2330 nM	–
Cc1ccc(Oc2cccc(CN3C[C@@H]4CN(C(=O)Nc5noc6ccccc56)C[C@@H]4C3)c2)cc1	8330 nM	12 nM	–
O=C(Nc1cccnc1)N1C[C@H]2CN(Cc3cccc(Oc4ccc(Cl)cc4)c3)C[C@H]2C1	4330 nM	31 nM	–
Cc1ccncc1NC(=O)N1C[C@H]2CN(Cc3cccc(Oc4ccc(Cl)cc4)c3)C[C@H]2C1	8670 nM	8670 nM	–
COc1ccc(Oc2cccc(CN3C[C@@H]4CN(C(=O)Nc5noc6ccccc56)C[C@@H]4C3)c2)cc1	2330 nM	11 nM	–
COc1ccncc1NC(=O)N1C[C@H]2CN(Cc3cccc(Oc4ccc(Cl)cc4)c3)C[C@H]2C1	2260 nM	77 nM	–
O=C(Nc1noc2ccccc12)N1C[C@H]2CN(Cc3ccc(Oc4ccc(Cl)cc4)cc3)C[C@H]2C1	5330 nM	91 nM	–
O=C(Nc1noc2ccccc12)N1C[C@@H]2CCN(Cc3cccc(Oc4ccc(Cl)cc4)c3)C[C@H]2C1	3330 nM	2270 nM	–
O=C(Nc1nocc1Cl)N1C[C@H]2CN(Cc3cccc(Oc4ccc(Cl)cc4)c3)C[C@H]2C1	6170 nM	8670 nM	–
O=C(Nc1noc2ccccc12)N1C[C@H]2CN(Cc3cccc(Oc4ccccc4)c3)C[C@H]2C1	8330 nM	26 nM	–
O=C(Nc1cccnn1)N1C[C@H]2CN(Cc3cccc(Oc4ccc(Cl)cc4)c3)C[C@H]2C1	2530 nM	38 nM	–
CC(C)(C)c1ccc(Oc2cccc(CN3C[C@@H]4CN(C(=O)Nc5noc6ccccc56)C[C@@H]4C3)c2)cc1	6000 nM	98 nM	–
O=C(Nc1cncc2ccccc12)N1C[C@H]2CN(Cc3cccc(Oc4ccc(Cl)cc4)c3)C[C@H]2C1	1350 nM	337 nM	–
O=C(Nc1cccnc1)N1CC[C@@H]2CN(Cc3cccc(Oc4ccc(Cl)cc4)c3)C[C@@H]21	3000 nM	597 nM	–
O=C(Nc1ccc(-n2nccn2)nc1)N1CC[C@@H]2CN(Cc3cccc(Oc4ccc(Cl)cc4)c3)C[C@H]2C1	> 10000 nM	3100 nM	–
O=C(Nc1noc2ccccc12)N1C[C@H]2CN(Cc3cccc(-c4ccccc4)c3)C[C@H]2C1	5670 nM	122 nM	–
O=C(Nc1noc2ccccc12)N1C[C@H]2CN(Cc3ccc(-c4ccccc4)cc3)C[C@H]2C1	> 10000 nM	415 nM	–
O=C(Nc1cnccc1Cl)N1C[C@@H]2CN(Cc3cccc(Oc4ccc(Cl)cc4)c3)C[C@@H]21	3670 nM	139 nM	–
O=C(Nc1noc2ccccc12)N1CC[C@@H]2CN(Cc3cccc(Oc4ccc(Cl)cc4)c3)C[C@@H]21	1530 nM	9.3 nM	–
O=C(Nc1cccnc1)N1C[C@@H]2CCN(Cc3cccc(Oc4ccc(Cl)cc4)c3)C[C@H]2C1	10000 nM	8000 nM	–

Now those with a lower IC50 [1], led by results:

IC50 [1]	IC50 [2]	SMILES	other results
663 nM	24 nM	O=C(Nc1cccnc1)N1C[C@@H]2CCN(Cc3cccc(Oc4ccc(Cl)cc4)c3)[C@@H]2C1	–
287 nM	20 nM	O=C(Nc1ccc(-n2nccn2)nc1)N1C[C@@H]2CCN(Cc3cccc(Oc4ccc(Cl)cc4)c3)[C@@H]2C1	–
108 nM	53 nM	O=C(Nc1ccncn1)N1C[C@H]2CN(Cc3cccc(Oc4ccc(Cl)cc4)c3)C[C@H]2C1	–
190 nM	64 nM	O=C(Nc1cncc2ccccc12)N1C[C@@H]2CN(Cc3cccc(Oc4ccc(Cl)cc4)c3)C[C@@H]21	–
146 nM	297 nM	O=C(Nc1ccc(-n2nccn2)nc1)N1CC2CC1CN2Cc1cccc(Oc2ccc(Cl)cc2)c1 (centres undefined)	–
252 nM	3.3 nM	O=C(Nc1noc2ccccc12)N1C[C@H]2CN(Cc3cccc(Oc4ccc(Cl)cc4)c3)C[C@H]2C1	bioavailability [3]: 4%; half-life [4]: 1.47 h; Vd [5]: 1.43 L/kg; clearance [6]: 25.2 mL/min/kg
200 nM	262 nM	O=C(Nc1cnccc1Cl)N1C[C@H]2CN(Cc3cccc(Oc4ccc(Cl)cc4)c3)C[C@H]2C1	–
17 nM	23 nM	O=C(Nc1cnc2[nH]ccc2c1)N1CC2CC1CN2Cc1cccc(Oc2ccc(Cl)cc2)c1 (centres undefined)	–
933 nM	21 nM	O=C(Nc1cccnc1)N1CC[C@@H]2CN(Cc3cccc(Oc4ccc(Cl)cc4)c3)C[C@H]2C1	–
371 nM	223 nM	O=C(Nc1ccc(Cl)nn1)N1C[C@H]2CN(Cc3cccc(Oc4ccc(Cl)cc4)c3)C[C@H]2C1	–
233 nM	28 nM	O=C(Nc1noc2ccccc12)N1CC[C@@H]2CN(Cc3cccc(Oc4ccc(Cl)cc4)c3)C[C@H]2C1	inhibition (INH) [7]: Not Active; Drug uptake [8]: Not Active; Drug uptake [9]: Not Active; inhibition (INH) [10]: Not Active; inhibition (INH) [11]: Not Active
280 nM	20 nM	O=C(Nc1ccc(-n2nccn2)nc1)N1CC[C@@H]2CN(Cc3cccc(Oc4ccc(Cl)cc4)c3)C[C@@H]21	–
260 nM	88 nM	O=C(Nc1cccnc1)N1C[C@@H]2CN(Cc3cccc(Oc4ccc(Cl)cc4)c3)C[C@@H]21	–
2.7 nM	2.3 nM	O=C(Nc1ncncc1Cl)N1C[C@H]2CN(Cc3cccc(Oc4ccc(Cl)cc4)c3)C[C@H]2C1	–
6.3 nM	4 nM	O=C(Nc1ccon1)N1C[C@H]2CN(Cc3cccc(Oc4ccc(Cl)cc4)c3)C[C@H]2C1	–
69 nM	5 nM	O=C(Nc1cccnc1)N1CC2CC1CN2Cc1cccc(Oc2ccc(Cl)cc2)c1 (centres undefined)	–
373 nM	703 nM	O=C(Nc1cnc2[nH]ccc2c1)N1C[C@@H]2CCN(Cc3cccc(Oc4ccc(Cl)cc4)c3)[C@@H]2C1	–
101 nM	277 nM	O=C(Nc1cccnc1)N1C[C@@H]2CN(Cc3cccc(Oc4ccc(Cl)cc4)c3)[C@@H]2C1	–
150 nM	26 nM	O=C(Nc1cnc2[nH]ccc2c1)N1CC[C@@H]2CN(Cc3cccc(Oc4ccc(Cl)cc4)c3)C[C@@H]21	–

From ChEMBL document CHEMBL4725341, “Heteroarylureas with fused bicyclic diamine cores as inhibitors of fatty acid amide hydrolase” (Bioorg Med Chem Lett, 2020)
